Measurements from publication PMC11855827, “High-Throughput Screening of Five Compound Libraries for Anthelmintic Activity and Toxicity Leads to the Discovery of Two Flavonoid Compounds” (International Journal of Molecular Sciences, 2025).

System: C. elegans
Details: Table S2, C. elegans SS assay, 110 μM, averages of 4 data points

| Structure (SMILES) | Percentage of motility inhibition 0 h | Percentage of motility inhibition 24 h |
| --- | --- | --- |
| COc1ccc2[nH]cc(CCO)c2c1 [5‐Methoxytryptophol] | 25% | 7% |
| COc1cc(C)c2c(=O)c(-c3ccccc3)coc2c1 [5‐Methyl‐7‐methoxyisoflavone] | 16% | 0% |
| COc1ccc(-c2cc(=O)c3c(O)c(OC)c(OC)c(OC)c3o2)cc1OC [5‐O‐Demethylnobiletin] | 26% | 29% |
| O=C(O)c1cnc(O)cn1 [5‐hydroxypyr azine‐2‐carboxylic acid] | 28% | 1% |
| COc1cc2c(=O)c(-c3ccc(O)cc3)coc2cc1O[C@@H]1O[C@H](COC(C)=O)[C@@H](O)[C@H](O)[C@H]1O [6''‐O‐Acetylglycitin] | 4% | 5% |
| C=C[C@@H]1C2=CCOC(=O)C2=CO[C@H]1O[C@@H]1O[C@H](CO[C@@H]2O[C@H](CO)[C@@H](O)[C@H](O)[C@H]2O)[C@@H](O)[C@H](O)[C@H]1O [6'-O-beta-D-Glucosylgentiopicroside] | 34% | 15% |
| CCN1C[C@]2(C)CC[C@H](OC)C34C5C[C@@H]6CC[C@@](O)(C5C(=O)O6)C(C13)[C@@H](OC(=O)c1ccccc1)[C@@H]42 [6‐Benzoylheteratisine] | 16% | 23% |
| COc1ccc(-c2cc(=O)c3c(OC)cc(OC)c(OC)c3o2)cc1 [6‐Demethoxytangeretin] | 31% | 8% |
| O=c1cc(-c2ccc(O)c(O)c2)oc2cc(O[C@@H]3O[C@H](CO)[C@@H](O)[C@H](O)[C@H]3O)c(O)c(O)c12 [6‐Hydroxyluteolin 7‐glucoside] | 0% | 10% |
| Cc1ccc(C(N)=O)cn1 [6‐Methylni cotinamid e] | 0% | 0% |
| COc1cc(/C=C/C(=O)OC[C@H]2O[C@@H](O[C@@H]3[C@@H](O)[C@H](O)[C@@H](CO)O[C@H]3c3c(OC)cc4oc(-c5ccc(O)cc5)cc(=O)c4c3O)[C@H](O)[C@@H](O)[C@@H]2O)ccc1O [6‴‐Feruloylspinosin] | 9% | 13% |
| COc1cc(O)c2c(=O)cc(-c3ccc(OC)c(OC)c3)oc2c1 [7,3',4'‐Tri‐O‐methylluteolin] | 13% | 21% |
| O=c1cc(-c2ccc(O)cc2)oc2cc(O)ccc12 [7,4'‐Dihydroxyflavone] | 5% | 0% |
| COc1ccc(-c2cc(=O)c3c(O)cc(OC)cc3o2)cc1 [7,4'‐Di‐O‐methylapigenin] | 0% | 9% |
| CC(=O)O[C@@]12CO[C@@H]1C[C@@H](O)[C@@]1(C)C(=O)[C@H](O)C3=C(C)[C@@H](OC(=O)[C@H](O)[C@@H](NC(=O)c4ccccc4)c4ccccc4)C[C@@](O)([C@@H](OC(=O)c4ccccc4)[C@H]21)C3(C)C [7-Epi 10-desacetyl paclitaxel] | 0% | 26% |
| CC(C)CCC[C@@H](C)[C@H]1CC[C@H]2[C@@H]3C(=O)C=C4C[C@@H](O)CC[C@]4(C)[C@H]3CC[C@]12C [7-Ketocholesterol] | 1% | 27% |
| CO[C@H]1c2cc(C(C)C)c(O)c(O)c2[C@@]23CCCC(C)(C)[C@@H]2[C@@H]1OC3=O [7-Methoxyrosmanol] | 12% | 18% |
| CC(=O)O[C@H]1C(=O)[C@@]2(C)[C@H]([C@H](OC(=O)c3ccccc3)[C@]3(O)C[C@H](OC(=O)[C@H](O)[C@@H](NC(=O)c4ccccc4)c4ccccc4)C(C)=C1C3(C)C)[C@]1(OC(C)=O)CO[C@@H]1C[C@@H]2O [7-epi-Taxol] | 13% | 11% |
| C=C1[C@H](O)C[C@H]2[C@@H](/C=C(\C)C(=O)[C@@]3(O)C[C@H](C)[C@H](O)[C@@H]3[C@H]1O)C2(C)C [7beta-Hydroxylathyrol] | 6% | 14% |

| Structure (SMILES) | Percentage of motility inhibition 0 h | Percentage of motility inhibition 24 h |
| --- | --- | --- |
| CC(=O)OCC1=C(C(=O)O)N2C(=O)[C@@H](N)[C@H]2SC1 [7‐Aminocephalosporanic acid] | 3% | 0% |
| CCc1c2c(nc3ccccc13)-c1cc3c(c(=O)n1C2)COC(=O)[C@]3(O)CC [7‐Ethylcamptothecin] | 11% | 22% |
| O=c1ccoc2cc(O)ccc12 [7‐Hydroxy‐4H‐chromen‐4‐one] | 0% | 8% |
| Cn1c[n+]([C@@H]2O[C@H](CO)[C@@H](O)[C@H]2O)c2nc(N)[nH]c(=O)c21 [7‐Methylguanosine] | 0% | 0% |
| C[C@@H]1CC[C@@H]2C(C(=O)O)=CO[C@@H](O[C@@H]3O[C@H](CO)[C@@H](O)[C@H](O)[C@H]3O)[C@H]12 [8-Epideoxyloganic acid] | 2% | 17% |
| C[C@H]1[C@H]2[C@H](O[C@@H]3O[C@H](CO)[C@@H](O)[C@H](O)[C@H]3O)OC=C(C(=O)O)[C@H]2C[C@@H]1O [8-Epiloganic acid] | 4% | 15% |
| CC(=O)O[C@@]1(C)C[C@@H](O)[C@]2(O)C=CO[C@@H](O[C@@H]3O[C@H](CO)[C@@H](O)[C@H](O)[C@H]3O)[C@@H]21 [8-O-Acetylharpagide] | 10% | 29% |
| O=c1c2c3c(ccc2cc2n1CCc1cc4c(cc1-2)OCO4)OCO3 [8‐Oxocoptisine] | 2% | 30% |
| CC(=O)OC1CC2(O)C(OC(=O)c3ccccc3)C3C4(OC(C)=O)COC4CC(O)C3(C)C(O)C(OC(C)=O)C(=C1C)C2(C)C (stereo not shown) [9-Dihydro-13-acetylbaccatin III] | 0% | 8% |
| CC[C@@]1(O)C(=O)OCc2c1cc1n(c2=O)Cc2cc3c(OC)cccc3nc2-1 [9‐Methoxycamptothecin] | 22% | 0% |
| COc1ccc2c3ccnc4ccc(=O)n(c2c1)c43 [9‐Methoxycanthin‐6‐one] | 0% | 22% |
| CC(=O)O[C@@]12CO[C@@H]1C[C@H](O[C@@H]1OC[C@@H](O)[C@H](O)[C@H]1O)[C@@]1(C)C(=O)[C@H](O)C3=C(C)[C@@H](OC(=O)[C@H](O)[C@@H](NC(=O)c4ccccc4)c4ccccc4)C[C@@](O)([C@@H](OC(=O)c4ccccc4)[C@H]21)C3(C)C [10-Deacetyl-7-xylosyl paclitaxel] | 0% | 14% |
| CC(=O)O[C@@]12CO[C@@H]1C[C@H](O)[C@@]1(C)C(=O)[C@H](O)C3=C(C)[C@@H](O)C[C@@](O)([C@@H](OC(=O)c4ccccc4)[C@H]21)C3(C)C [10-Deacetylbaccatin III] | 4% | 5% |
| CC(=O)O[C@@]12CO[C@@H]1C[C@H](O)[C@@]1(C)C(=O)[C@H](O)C3=C(C)[C@@H](OC(=O)[C@H](O)[C@@H](NC(=O)c4ccccc4)c4ccccc4)C[C@@](O)([C@@H](OC(=O)c4ccccc4)[C@H]21)C3(C)C [10-Deacetyltaxol] | 17% | 0% |
| C=CCCCCCCCCC(=O)O [10-Undecenoic acid] | 0% | 6% |
| CC[C@@]1(O)C(=O)OCc2c1cc1n(c2=O)Cc2cc3cc(OC)ccc3nc2-1 [10‐Methoxycamptothecin] | 0% | 0% |
| C=CCCCCCCCCC(=O)[O-].C=CCCCCCCCCC(=O)[O-].[Zn+2] [10‐Undecenoic acid (zinc salt)] | 43% | 35% |
| C[C@H](CC[C@@H](O[C@@H]1O[C@H](CO[C@@H]2O[C@H](CO)[C@@H](O)[C@H](O)[C@H]2O)[C@@H](O)[C@H](O)[C@H]1O[C@@H]1O[C@H](CO)[C@@H](O)[C@H](O)[C@H]1O)C(C)(C)O)[C@H]1CC[C@@]2(C)[C@@H]3CC=C4[C@@H](CC[C@H](O[C@@H]5O[C@H](CO[C@@H]6O[C@H](CO)[C@@H](O)[C@H](O)[C@H]6O)[C@@H](O)[C@H](O)[C@H]5O)C4(C)C)[C@]3(C)CC[C@]12C [11-Deoxymogroside V] | 0% | 10% |
| C[C@H]1[C@H](C)CC[C@]2(C)CC[C@]3(C)C(=CC(=O)[C@@H]4[C@@]5(C)CC[C@@H](O)[C@](C)(C(=O)O)[C@@H]5CC[C@]43C)[C@H]12 [11-Keto-beta-boswellic acid] | 2% | 0% |
